Where a name gives a salt, the structure may show the parent alone.
The molecules below were run on HCV RNA replication (replicon cell lines Huh-7, 5.2 and ET) (assay: Cell-Based Luciferase Reporter HCV RNA Replication Assay). Settings: Hepatitis C virus, Huh-7, 96 h, Huh-7, 5.2 or ET replicon cells, luciferase counts after 4 days incubation; read-out: IC50.

`C[C@H]1CC[C@H](C(=O)N(c2cc(C3=CCCCC3)sc2C(=O)O)[C@H]2CC[C@H](c3nnn[nH]3)CC2)CC1` [Compound 62, 5-cyclohex-1-enyl-3-{(trans-4-methyl-cyclohexanecarbonyl)-[trans-4-(1h-tetrazol-5-yl)-cyclohexyl]-amino}-thiophene-2-carboxylic acid] and `C[C@H]1CC[C@H](C(=O)N(c2cc(C3=CCCCC3)sc2C(=O)O)[C@H]2CC[C@H](F)CC2)CC1` [Compound 70, 5-cyclohex-1-enyl-3-[(trans-4-fluoro-cyclohexyl)-(trans-4-methyl-cyclohexanecarbonyl)-amino]-thiophene-2-carboxylic acid] cannot be ordered by IC50: less than 5 µM for the first, less than 5 µM for the second.

`CC1CCC(C(=O)N(c2cc(C3=CCCCC3)sc2C(=O)O)C2CC[S+]([O-])CC2)CC1` (stereo not drawn) [Compound 63, 5-cyclohex-1-enyl-3-[(trans-4-methyl-cyclohexanecarbonyl)-(1-oxo-hexahydro-1-thiopyran-4-yl)-amino]-thiophene-2-carboxylic acid] and `C[C@H]1CC[C@H](C(=O)N(c2cc(C3=CCCCC3)sc2C(=O)O)C2CCN(C=O)CC2)CC1` [Compound 98, 5-cyclohex-1-enyl-3-[(1-formyl-piperidin-4-yl)-(trans-4-methyl-cyclohexanecarbonyl)-amino]-thiophene-2-carboxylic acid] cannot be ordered by IC50: less than 5 µM for the first, less than 5 µM for the second.

`CC1(C)CCC(c2cc(N(C(=O)[C@H]3CC[C@H](C)CC3)[C@H]3CC[C@H](O)CC3)c(C(=O)O)s2)CC1` [Compound 64, 5-(4,4-dimethyl-cyclohexyl)-3-[(trans-4-hydroxy-cyclohexyl)-(trans-4-methyl-cyclohexanecarbonyl)-amino]-thiophene-2-carboxylic acid] and `CC1(C)CCC(c2cc(N(C(=O)[C@H]3CC[C@H](C)CC3)[C@H]3CC[C@H](F)CC3)c(C(=O)O)s2)CC1` [Compound 83, 5-(4,4-dimethyl-cyclohexyl)-3-[(trans-4-fluoro-cyclohexyl)-(trans-4-methyl-cyclohexanecarbonyl)-amino]-thiophene-2-carboxylic acid] cannot be ordered by IC50: less than 5 µM for the first, less than 5 µM for the second.

`CC1CCC(C(=O)N(c2cc(C3=CCCCC3)sc2C(=O)O)C2CCc3ccccc3C2)CC1` (stereo not drawn) [Compound 66, RS-5-cyclohex-1-enyl-3-[(4-trans-methyl-cyclohexanecarbonyl)-(1,2,3,4-tetrahydro-naphthalen-2-yl)-amino]-thiophene-2-carboxylic acid] and `COc1ccc2c(c1)CC(N(C(=O)C1CCC(C)CC1)c1cc(C3=CCCCC3)sc1C(=O)O)CC2` (stereo not drawn) [Compound 67, RS-5-cyclohex-1-enyl-3-[(7-methoxy-1,2,3,4-tetrahydro-naphthalen-2-yl)-(4-trans-methyl-cyclohexanecarbonyl)-amino]-thiophene-2-carboxylic acid] cannot be ordered by IC50: less than 5 µM for the first, less than 5 µM for the second.

`CNC(=O)C1CCC(N(C(=O)C2CCC(C)CC2)c2cc(C3=CCCCC3)sc2C(=O)O)CC1C(=O)O` (stereo not drawn) [Compound 68, 3-[(3-trans-carboxy-4-trans-methylcarbamoyl-cyclohexyl)-(4-trans-methyl-cyclohexanecarbonyl)-amino]-5-cyclohex-1-enyl-thiophene-2-carboxylic acid] and `CC1CCC(C(=O)N(c2cc(C3=CCCCC3)sc2C(=O)O)C2CCC3C(=O)N(C)C(=O)C3C2)CC1` (stereo not drawn) [Compound 72, RS-5-cyclohex-1-enyl-3-[(trans-methyl-cyclohexanecarbonyl)-(2-methyl-1,3-dioxo-octahydro-isoindol-5-yl)-amino]-thiophene-2-carboxylic acid] cannot be ordered by IC50: less than 5 µM for the first, less than 5 µM for the second.

`CC1CCC(C(=O)N(c2cc(C3=CCCCC3)sc2C(=O)O)C2CCC3(CC2)CN(C)C(=O)N3C)CC1` (stereo not drawn) [Compound 73, 5-cyclohex-1-enyl-3-[cis(1,3-dimethyl-2-oxo-1,3-diaza-spiro[4.5]dec-8-yl)-(trans-4-methyl-cyclohexanecarbonyl)-amino]-thiophene-2-carboxylic acid] and `CC1CCC(C(=O)N(c2cc(C3=CCCCC3)sc2C(=O)O)C2CCC3(CC2)CC(=O)N(C)C3)CC1` (stereo not drawn) [Compound 84, 5-cyclohex-1-enyl-3-[(trans-4-methyl-cyclohexanecarbonyl)-cis-(2-methyl-3-oxo-2-aza-spiro[4.5]dec-8-yl)-amino]-thiophene-2-carboxylic acid] cannot be ordered by IC50: less than 5 µM for the first, less than 5 µM for the second.

`C[C@H]1CC[C@H](C(=O)N(c2cc([C@H]3CC[C@H](C)CC3)sc2C(=O)O)[C@H]2CC[C@H](O)CC2)CC1` [Compound 77, 3-[(trans-4-hydroxy-cyclohexyl)-(trans-4-methyl-cyclohexanecarbonyl)-amino]-5-(trans-4-methyl-cyclohexyl)-thiophene-2-carboxylic acid] and `C[C@H]1CC[C@H](C(=O)N(c2cc([C@H]3CC[C@@H](C)CC3)sc2C(=O)O)[C@H]2CC[C@H](O)CC2)CC1` [Compound 78, 3-[(trans-4-hydroxy-cyclohexyl)-(trans-4-methyl-cyclohexanecarbonyl)-amino]-5-(cis-4-methyl-cyclohexyl)-thiophene-2-carboxylic acid] cannot be ordered by IC50: less than 5 µM for the first, less than 5 µM for the second.

`CC1CCC(C(=O)N(c2cc(C3=CCCCC3)sc2C(=O)O)C2CCC3(CC2)CNC(=O)C3)CC1` (stereo not drawn) [Compound 80, 5-cyclohex-1-enyl-3-[(trans-4-methyl-cyclohexanecarbonyl)-cis-(3-oxo-2-aza-spiro[4.5]dec-8-yl)-amino]-thiophene-2-carboxylic acid] and `CC1CCC(C(=O)N(c2cc(C3=CCCCC3)sc2C(=O)O)C2CCC(C)(C#N)CC2)CC1` (stereo not drawn) [Compound 99, 3-[(cis-4-cyano-4-methyl-cyclohexyl)-(trans-4-methyl-cyclohexanecarbonyl)-amino]-5-cyclohex-1-enyl-thiophene-2-carboxylic acid] cannot be ordered by IC50: less than 5 µM for the first, less than 5 µM for the second.

First: CC1CCC(C(=O)N(c2cc(C3CCC(=O)CC3)sc2C(=O)O)C2CCC(O)CC2)CC1 (stereo not drawn) [Compound 86, 3-[(4-trans-hydroxy-cyclohexyl)-(4-trans-methyl-cyclohexanecarbonyl)-amino]-5-(4-oxo-cyclohexyl)-thiophene-2-carboxylic acid]
Second: CC1(C)CCC(c2cc(N(C(=O)[C@H]3CC[C@H](C)CC3)C3COCOC3)c(C(=O)O)s2)CC1 [Compound 97, 5-(4,4-Dimethyl-cyclohexyl)-3-[[1,3]dioxan-5-yl-(trans-4-methyl-cyclohexanecarbonyl)-amino]-thiophene-2-carboxylic acid]
The IC50 of the first is higher: 5 to 25 µM for the first, less than 5 µM for the second.

`CC1CCC(C(=O)N(c2cc(C3=CCCCC3)sc2C(=O)O)C2CCN3C(=O)CCC3C2)CC1` (stereo not drawn) [Compound 87, RS-5-cyclohex-1-enyl-3-[(4-trans-methyl-cyclohexanecarbonyl)-(3-oxo-octahydro-indolizin-7-yl)-amino]-thiophene-2-carboxylic acid] and `C[C@H]1CC[C@H](C(=O)N(c2cc(C3=CCCCC3)sc2C(=O)O)C2CCN(C#N)CC2)CC1` [Compound 102, 3-[(1-cyano-piperidin-4-yl)-(trans-4-methyl-cyclohexanecarbonyl)-amino]-5-cyclohex-1-enyl-thiophene-2-carboxylic acid] cannot be ordered by IC50: less than 5 µM for the first, less than 5 µM for the second.

`CC1(C)CC=C(c2cc(N(C(=O)[C@H]3CC[C@H](C)CC3)[C@H]3CC[C@@H](n4cncn4)CC3)c(C(=O)O)s2)CC1` [Compound 94, 5-(4,4-dimethyl-cyclohex-1-enyl)-3-[(trans-4-methyl-cyclohexanecarbonyl)-(cis-4-[1,2,4]triazol-1-yl-cyclohexyl)-amino]-thiophene-2-carboxylic acid; hydrochloride] and `CC1(C)CC=C(c2cc(N(C(=O)[C@H]3CC[C@H](C)CC3)[C@H]3CC[C@H](n4cncn4)CC3)c(C(=O)O)s2)CC1` [Compound 95, 5-(4,4-dimethyl-cyclohex-1-enyl)-3-[(trans-4-methyl-cyclohexanecarbonyl)-(trans-4-[1,2,4]triazol-1-yl-cyclohexyl)-amino]-thiophene-2-carboxylic acid; hydrochloride] cannot be ordered by IC50: less than 5 µM for the first, less than 5 µM for the second.

`C[C@H]1CC[C@H](C(=O)N(c2cc(C3=CCCCC3)sc2C(=O)O)C2CCN(c3cncnc3)CC2)CC1` [Compound 96, 5-cyclohex-1-enyl-3-[(trans-4-methyl-cyclohexanecarbonyl)-(1-pyrimidin-5-yl-piperidin-4-yl)-amino]-thiophene-2-carboxylic acid] and `CC1CCC(C(=O)N(c2cc(C3=CCCCC3)sc2C(=O)O)C2CCN(c3ncccn3)CC2)CC1` (stereo not drawn) [Compound 103, 5-cyclohex-1-enyl-3-[(trans, 4-methyl-cyclohexanecarbonyl)-(1-pyrimidin-2-yl-piperidin-4-yl)-amino]-thiophene-2-carboxylic acid] cannot be ordered by IC50: less than 5 µM for the first, less than 5 µM for the second.

`CS(=O)(=O)N1CCC(N(c2cc(C3=CCCCC3)sc2C(=O)O)C(=O)[C@H]2CC[C@H](C)CC2)CC1` [Compound 101, 5-cyclohex-1-enyl-3-[(1-methanesulfonyl-piperidin-4-yl)-(trans-4-methyl-cyclohexanecarbonyl)-amino]-thiophene-2-carboxylic acid] and `CC1CCC(C(=O)N(c2cc(C3=CCCCC3)sc2C(=O)O)C2CCC(n3ccnn3)CC2)CC1` (stereo not drawn) [Compound 104, 5-cyclohex-1-enyl-3-[(trans-4-methyl-cyclohexanecarbonyl)-(cos-4-[1,2,3]triazol-1-yl-cyclohexyl)-amino]-thiophene-2-carboxylic acid] cannot be ordered by IC50: less than 5 µM for the first, less than 5 µM for the second.

Same assay, conditions: Huh-7, 5.2 or ET replicon cells, luciferase counts after 4 days incubation; read-out: IC50

`CC1CCC(C(=O)N(c2cc(C3=CCCCC3)sc2C(=O)O)C2CCC3(CC2)CN(C)C(=O)N3C)CC1` (stereo not drawn) [Compound 74, 5-cyclohex-1-enyl-3-[trans-(1,3-dimethyl-2-oxo-1,3-diaza-spiro[4.5]dec-8-yl)-(trans-4-methyl-cyclohexanecarbonyl)-amino]-thiophene-2-carboxylic acid] and `CC1CCC(C(=O)N(c2cc(C3=CCCCC3)sc2C(=O)O)C2CCC3(CC2)CNC(=O)C3)CC1` (stereo not drawn) [Compound 81, 5-cyclohex-1-enyl-3-[(trans-4-methyl-cyclohexanecarbonyl)-trans-(3-oxo-2-aza-spiro[4.5]dec-8-yl)-amino]-thiophene-2-carboxylic acid] cannot be ordered by IC50: less than 5 µM for the first, less than 5 µM for the second.
